Like-named read-outs stand apart in the source and are kept apart here.
Experiments:
[1] = tested on: proteolytic activity of a fecal extract; settings: zinc sulfate heptahydrate 0-1 mM; FIG. 7
Method: The supernatant was filtered through 0.22 micron cellulose acetate filters and stored at −80° C. until use.

[2] = tested on: EpiDerm™ 201 synthetic skin (keratinocytes), interleukin-1 alpha release
Source text: The synthetic skin, EpiDerm™ 201 (MatTek Corporation, Ashland, Mass. contains keratinocytes that release interleukin-1 alpha (IL-1 alpha) when subjected to proteases in the fecal extract. When the IL-1 alpha was released, it diffused from the skin into the fluid below the EpiDerm™. Samples of this fluid were taken and analyzed for the presence of the IL-1 alpha. Higher levels of IL-1 alpha was indicative of greater skin irritation.
Prior to application onto the EpiDerm™, the fecal extract (10.4 μL) was pre-incubated for 30 minutes at room temperature with 250 mM zinc sulfate heptahydrate in water (2.6 μL). Water only and fecal extract only samples served as controls. After application of the samples to the EpiDerm™, 25 μL aliquots were removed from the underlying media at 8, 12, and 24 hours to test for the presence of the IL-1 alpha. The aliquots were directly added to a 1.5 mL micro-centrifuge tube containing 225 μL of filtered-sterilized 20 mM tris-HCl, pH 8.0, 1% BSA buffer and stored at −80° C. After all samples were collected, IL-1 alpha levels were quantified using the R&D Systems Interleukin-1 alpha Quantikine Kit (R&D Systems, Minneapolis, Minn.

[3] = tested on: proteolytic activity of infant urine; settings: zinc sulfate heptahydrate 0-50 mM; FIG. 8
Method: The proteolytic activity of infant urine was measured using fluorescently labeled casein.
Two (2) infant urine (100 μL) samples were added to wells of a 96 white plate (Dynex) containing 80 μL of 12.5 μg/ml solution of a fluorescent dye-labeled casein substrate (EnzChek Protease Assay Kit (E-6639)) in 100 mM Tris-HCl, pH 8.0, and allowed to incubate for 60 minutes at 37° C. […] Reaction of the infant urine with the casein substrate cleaved the fluorescent dye from the substrate. RFUs were collected using the Fluoroskan Ascent System with excitation and emission filters of 485 and 538 nm, respectively. Data were collected each minute for 60 minutes at 37° C. and rates (RFU/min) from 30-50 minutes were calculated for each zinc concentration. Using the uninhibited wells as 100% protease activity, percent of urine proteolytic activity remaining was determined for each concentration of zinc inhibitor (Inhibited Rate/Uninhibited rate* 100).

[4] = not given; remark: listed apart in the source
[5] = 1.0 mM zinc sulfate heptahydrate
[6] = 2.5 mM zinc sulfate heptahydrate
[7] = 5.0 mM zinc sulfate heptahydrate
[8] = 10.0 mM zinc sulfate heptahydrate
[9] = 20.0 mM zinc sulfate heptahydrate
[10] = .1 mM zinc sulfate heptahydrate
[11] = increased concentration of zinc sulfate heptahydrate (Table 1)

O.O.O.O.O.O.O.O=S(=O)([O-])[O-].[Zn+2] [zinc sulfate heptahydrate]
pH, Fecal Extract Example B [5]: 6.5 | pH, Fecal Extract Example B [6]: 6.0-6.5 | pH, Fecal Extract Example B [7]: 6.0 | pH, Fecal Extract Example B [8]: 5.5 | pH, Fecal Extract Example B [9]: 5.5 | pH, Fecal Extract Example B [10]: 6.5 | reduction of pH of the fecal extract sample [11]: 1 pH unit | inhibition of hydrolysis of casein by the fecal extract (percent of fecal proteolytic activity remaining) [1]: effectively inhibited the hydrolysis of casein by the fecal extract in a dose-dependent manner | proteolytic activity of fecal extract on synthetic skin (IL-1 alpha release) ([2]; 0, 25, 50, 125 and 250 mM zinc sulfate heptahydrate, FIG. 10): effectively inhibits the proteolytic activity of fecal extract in a dose-dependent manner | interleukin-1 alpha released into the underlying media ([2]; FE+zinc (250 mM, 2.6 μL) relative to FE+water, 8, 12 and 24 hours, FIG. 9): reduced the amount of interleukin-1 alpha released | inhibition of hydrolysis of casein by infant urine (percent of urine proteolytic activity remaining) [3]: effectively inhibited the hydrolysis of casein by infant urine in a dose-dependent manner | pH, Infant Urine Example F [4, 5]: 8.0 | pH, Infant Urine Example G [4, 5]: 7.0 | pH, Infant Urine Example H [4, 5]: 7.5 | pH, Infant Urine Example F [4, 6]: 7.5-8.0 | pH, Infant Urine Example G [4, 6]: 6.5 | pH, Infant Urine Example H [4, 6]: 7.0-7.5 | pH, Infant Urine Example F [4, 7]: 7.5 | pH, Infant Urine Example G [4, 7]: 5.5 | pH, Infant Urine Example H [4, 7]: 7.0 | pH, Infant Urine Example F [4, 8]: 7.0 | pH, Infant Urine Example G [4, 8]: 5.0 | pH, Infant Urine Example H [4, 8]: 6.5 | pH, Infant Urine Example F [4, 9]: 7.0 | pH, Infant Urine Example G [4, 9]: 5.0 | pH, Infant Urine Example H [4, 9]: 6.5 | pH, Infant Urine Example F [4, 10]: 8.5 | pH, Infant Urine Example G [4, 10]: 7.0 | pH, Infant Urine Example H [4, 10]: 8.0 | reduction of pH of the infant urine samples [4, 11]: 1.5-2.0 pH units

From patent publication US6503524B1, “Delivery of a skin health benefit agent to a treated substrate for transfer to skin” (Kimberly-Clark Worldwide, Inc., priority 2000, dated 2003)
